Laboratory results published in US12600716B2 (Gannex Pharma Co., Ltd., priority 2020, dated 2026).
Like-named read-outs stand apart in the source and are kept apart here.

Columns and labels:
[1] = Mouse pharmacokinetic studies (IV and PO); type: in vivo, Male CD-1 mice; conditions: for PO F: PO 10 mg/kg vs IV 2.0 mg/kg; for Vd / AUC(0-t) / clearance / half-life / Cmax / Tmax: male, CD-1, plasma; for clearance: read-out: IV Cl; for half-life: read-out: IV T½ (converted)
Protocol: Mouse Pharmacokinetic Studies
Typical PK study procedure. For i.v. PK studies, a group of three fasted Male CD-1 mice were dosed with the compound (2.0 mg/kg, 0.50 mg/mL in 5% solutol in saline, clear solution), and 0.02 mL blood was collected at 0.0830, 0.250, 0.500, 1.00, 2.00, 4.00, 8.00, 24.0 h. For PO PK studies, a group of three fasted Male CD-1 mice were dosed with the compound (10 mg/kg, 1 mg/mL in 5% solutol in saline, clear solution), and 0.02 mL blood was collected at 0.250, 0.500, 1.00, 2.00, 4.00, 6.00, 8.00, 24.0 h. The blood was collected into EP tubes (containing EDTA K20.85-1.15 mg) and centrifuged at 3,000 g or 3,200 g at 4° C. for 10 min) and plasma was isolated and divided into two vials. One was used for bioanalysis and one was kept as backup. The samples were kept at −60° C. or below, until being analyzed by LC MS/MS. The samples were analyzed with AB SCIEX INSTRUMENTS LC-MS/MS AU-Triple Quad 6500 Plus and data were processed with Phoenix WinNonlin 6.3 (IV-noncompartmental model and PO-noncompartmental model).

[2] = target: T1, hFXR-LBD-GAL4 (Homo sapiens, UniProt Q96RI1); assay: FXR agonist transactivation ability: luciferase reporter gene in HEK293T; type: cell-based; conditions: read-out: Cell activity
T1 construct: GAL4 (fusion partner); host or cells: HEK293T
T1 sequence (Q96RI1 262-486 limits assumed): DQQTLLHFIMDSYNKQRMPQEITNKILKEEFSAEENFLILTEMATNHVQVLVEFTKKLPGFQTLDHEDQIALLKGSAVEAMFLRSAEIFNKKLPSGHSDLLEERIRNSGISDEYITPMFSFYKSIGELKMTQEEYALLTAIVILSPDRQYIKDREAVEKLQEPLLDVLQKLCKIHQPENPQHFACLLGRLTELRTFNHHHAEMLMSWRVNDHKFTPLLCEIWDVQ
Protocol: FXR Agonist Transactivation Ability
Evaluation of the ability of the compound of the present invention to promote FXR transactivation was conducted by using luciferase reporter gene expression technology.
• 1. Cell line: HEK293T (Invitrogen) • 2. Expression plasmid: pBIND-hFXR-LBD-GAL4 (Promega), pGL4.35-luciferase (Promega) • 3. Cell culture medium: 10% serum and penicillin/streptomycin double antibody in DMEM medium • 4. Detection reagent: Steady-Glo fluorescence detection system (Promega). • 5. Transfection reagent: TransIT-293 Transfection Reagent (MIRUS BIO)
• 1. The compound was prepared into a 10 mM DMSO stock solution and stored in a −20° C. refrigerator for a long time. • 2. Resuscitation HEK293T cells were seeded in 10 cm culture dishes at a concentration of 5.5×10^6 and incubated for 16 hours at 37° C. in a 5% CO2 incubator. • 3. Return the transfection reagent to room temperature before transfection. The Trans-IT solution was added dropwise to Opti-MEM, and mixed by inversion for 5 minutes; the expression plasmid was added, mixed by inversion, and incubated at room temperature for 20 minutes. • 4. Add the transfection mixture from Step 3 to the prepared 10 cm dish in Step 2 and incubate for 5-6 hours in a 5% CO2 incubator. • 5. Dilute the compound 3 folds to 10 concentration points using DMSO; add 25 nl of compound per well in a 384-well plate using an Echo 550 sonic pipette; add HEK293T cells to the 384-well plate at a concentration of 15,000 cells/well; 37° C. incubate for 16-20 hours in a 5% CO2 incubator. • 6. Add 25 μl of Steady-Glo Fluorescent Reagent to each well and read the fluorescence on an Envision 2104 plate reader. • 7. Calculate the EC50 value of the activation of the compound.

[3] = target: T2, human FXR protein (Homo sapiens, UniProt Q96RI1); assay: FXR agonist binding ability: time-resolved fluorescence (LanthaScreen) FXR/coactivator assay; type: biochemical; conditions: GST-labeled human FXR, fluorescein-labeled coactivator, TR-FRET
T2 construct: purchased Invitrogen
Protocol: FXR Agonist Binding Ability Evaluation of the activation effect of the compound of the present invention with regard to the binding of FXR to its co-stimulatory factor SRC-1 was conducted by using time-resolved analytical techniques. Protein: glutathione-S-transferase (GST)-labeled human FXR protein (Invitrogen) • 2. Coactivator: Fluorescein-labeled steroid receptor coactivator (SRC2-2) (Invitrogen) • 3. Detection reagent: LanthaScreen Time-Resolved Fluorescence Analysis Kit (Invitrogen) • 1. The compound was prepared into a 10 mM DMSO stock solution and stored in a −20° C. refrigerator for a long time. • 2. The compound was diluted to 1 mM before the experiment, and then the compound was diluted 3-fold to 10 concentration points using DMSO. Then use buffer G (Invitrogen, PV4553) to dilute these 10 concentration points by 50 times to become a working fluid. Add 10 μl of each working solution to each well of a 384-well plate. • 3. Prepare a human FXR protein solution (final concentration 20 nM) in chilled buffer G and add 5 μl of human FXR protein solution to each well of a 384-well plate. • 4. Prepare a mix of buffer G containing 2 μM fluorescein-labeled steroid receptor coactivator and 20 nM GST antibody. • 5. Add 5 μl of the mixture prepared in Step 4 to a 384-well plate. • 6. Centrifuge the 384-well plate at 1000 g for 1 minute. • 7. Incubate for 1 hour at room temperature in the dark. • 8. Read the 384-well plate at 520 nm and 495 nm on an Envision 2104 plate reader. • 9. Calculate the EC50 value of the activation effect of the compound.

[4] = IV 2.0 mg/kg, read-out: IV AUC 0-t
[5] = PO 10 mg/kg, read-out: PO AUC 0-t

O=C(O)c1ccc(Oc2ccc3c(F)c(OCc4c(-c5c(Cl)cccc5Cl)noc4C4CC4)ccc3c2)nc1 [Compound 32, 6-((6-((5-cyclopropyl-3-(2,6-dichlorophenyl)isoxazol-4-yl)methoxy)-5-fluoronaphthalen-2-yl)oxy)nicotinic acid]
PO F [1]: 54.7% | Vd ([1]; IV 2.0 mg/kg): 1.36 L/kg | AUC(0-t) [1, 4]: 1400 ng·h/mL | clearance ([1]; IV 2.0 mg/kg): 24 mL/min/kg | half-life ([1]; IV 2.0 mg/kg): 61.8 min | Cmax ([1]; PO 10 mg/kg): 1400 ng/mL | Tmax ([1]; PO 10 mg/kg): 30 min | AUC(0-t) [1, 5]: 3810 ng·h/mL | EC50 [2]: < 200 nM | EC50 [3]: < 50 nM

O=C(O)c1ccc(F)cc1Oc1c(F)ccc2cc(OCc3c(-c4c(Cl)cccc4Cl)noc3C3CC3)ccc12 [Compound 44, 2-((6-((5-cyclopropyl-3-(2,6-dichlorophenyl)isoxazol-4-yl)methoxy)-2-fluoronaphthalen-1-yl)oxy)-4-fluorobenzoic acid]
PO F [1]: 23.7% | Vd ([1]; IV 2.0 mg/kg): 2.06 L/kg | AUC(0-t) [1, 4]: 559 ng·h/mL | clearance ([1]; IV 2.0 mg/kg): 60.4 mL/min/kg | half-life ([1]; IV 2.0 mg/kg): 73.8 min | Cmax ([1]; PO 10 mg/kg): 384 ng/mL | Tmax ([1]; PO 10 mg/kg): 56 min | AUC(0-t) [1, 5]: 646 ng·h/mL | EC50 [2]: < 200 nM | EC50 [3]: < 50 nM

O=C(O)c1cccc(Oc2ccc3cc(OCc4c(-c5c(Cl)cccc5Cl)noc4C4CC4)ccc3c2)n1 [Compound 11, 6-((6-((5-cyclopropyl-3-(2,6-dichlorophenyl)isoxazol-4-yl)methoxy)naphthalen-2-yl)oxy)picolinic acid]
PO F [1]: 33.3% | Vd ([1]; IV 2.0 mg/kg): 0.294 L/kg | AUC(0-t) [1, 4]: 4980 ng·h/mL | clearance ([1]; IV 2.0 mg/kg): 6.66 mL/min/kg | half-life ([1]; IV 2.0 mg/kg): 86.4 min | Cmax ([1]; PO 10 mg/kg): 5730 ng/mL | Tmax ([1]; PO 10 mg/kg): 30 min | AUC(0-t) [1, 5]: 8330 ng·h/mL | EC50 [2]: 500 to 1000 nM | EC50 [3]: < 50 nM

O=C(O)c1ccc(F)cc1Oc1cccc2cc(OCc3c(-c4c(Cl)cccc4Cl)noc3C3CC3)ccc12 [Compound 26, 2-((6-((5-cyclopropyl-3-(2,6-dichlorophenyl)isoxazol-4-yl)methoxy)naphthalen-1-yl)oxy)-4-fluorobenzoic acid]
PO F [1]: 17% | Vd ([1]; IV 2.0 mg/kg): 0.745 L/kg | AUC(0-t) [1, 4]: 969 ng·h/mL | clearance ([1]; IV 2.0 mg/kg): 35 mL/min/kg | half-life ([1]; IV 2.0 mg/kg): 37.2 min | Cmax ([1]; PO 10 mg/kg): 900 ng/mL | Tmax ([1]; PO 10 mg/kg): 30 min | AUC(0-t) [1, 5]: 830 ng·h/mL | EC50 [2]: < 200 nM | EC50 [3]: < 50 nM

Cc1cc(C(=O)O)cnc1Oc1c(F)ccc2cc(OCc3c(-c4c(Cl)cccc4Cl)noc3C3CC3)ccc12 [Compound 47, 6-((6-((5-cyclopropyl-3-(2,6-dichlorophenyl)isoxazol-4-yl)methoxy)-2-fluoronaphthalen-1-yl)oxy)-5-methylnicotinic acid]
PO F [1]: 28.6% | Vd ([1]; IV 2.0 mg/kg): 0.495 L/kg | AUC(0-t) [1, 4]: 1500 ng·h/mL | clearance ([1]; IV 2.0 mg/kg): 22.2 mL/min/kg | half-life ([1]; IV 2.0 mg/kg): 38.3 min | Cmax ([1]; PO 10 mg/kg): 2150 ng/mL | Tmax ([1]; PO 10 mg/kg): 30 min | AUC(0-t) [1, 5]: 2140 ng·h/mL | EC50 [2]: < 200 nM | EC50 [3]: < 50 nM

O=C(O)c1ccnc(Oc2cccc3cc(OCc4c(-c5c(Cl)cccc5Cl)noc4C4CC4)ccc23)c1 [Compound 24, 2-((6-((5-cyclopropyl-3-(2,6-dichlorophenyl)isoxazol-4-yl)methoxy)naphthalen-1-yl)oxy)isonicotinic acid]
PO F [1]: 12% | Vd ([1]; IV 2.0 mg/kg): 2.94 L/kg | AUC(0-t) [1, 4]: 330 ng·h/mL | clearance ([1]; IV 2.0 mg/kg): 105 mL/min/kg | half-life ([1]; IV 2.0 mg/kg): 56.4 min | Cmax ([1]; PO 10 mg/kg): 209 ng/mL | Tmax ([1]; PO 10 mg/kg): 18 min | AUC(0-t) [1, 5]: 198 ng·h/mL | EC50 [2]: < 200 nM | EC50 [3]: < 50 nM

O=C(O)c1ccc(Oc2ccc3cc(OCc4c(-c5c(Cl)cccc5Cl)noc4C4CC4)ccc3c2Cl)nc1 [Compound 21, 6-((1-chloro-6-((5-cyclopropyl-3-(2,6-dichlorophenyl)isoxazol-4-yl)methoxy)naphthalen-2-yl)oxy)nicotinic acid]
PO F [1]: 46.2% | Vd ([1]; IV 2.0 mg/kg): 1.75 L/kg | AUC(0-t) [1, 4]: 969 ng·h/mL | clearance ([1]; IV 2.0 mg/kg): 35.8 mL/min/kg | half-life ([1]; IV 2.0 mg/kg): 76.8 min | Cmax ([1]; PO 10 mg/kg): 1480 ng/mL | Tmax ([1]; PO 10 mg/kg): 30 min | AUC(0-t) [1, 5]: 2220 ng·h/mL | EC50 [2]: < 200 nM | EC50 [3]: 50 to 500 nM

Cc1nc(Oc2ccc3cc(OCc4c(-c5c(Cl)cccc5Cl)noc4C4CC4)ccc3c2)ccc1C(=O)O [Compound 10, 6-((6-((5-cyclopropyl-3-(2,6-dichlorophenyl)isoxazol-4-yl)methoxy)naphthalen-2-yl)oxy)-2-methylnicotinic acid]
PO F [1]: 52.6% | Vd ([1]; IV 2.0 mg/kg): 0.66 L/kg | AUC(0-t) [1, 4]: 3550 ng·h/mL | clearance ([1]; IV 2.0 mg/kg): 9.26 mL/min/kg | half-life ([1]; IV 2.0 mg/kg): 96 min | Cmax ([1]; PO 10 mg/kg): 5500 ng/mL | Tmax ([1]; PO 10 mg/kg): 25 min | AUC(0-t) [1, 5]: 9360 ng·h/mL | EC50 [2]: < 200 nM | EC50 [3]: 50 to 500 nM

O=C(O)c1ccc(Oc2ccc3ccc(OCc4c(-c5c(Cl)cccc5Cl)noc4C4CC4)cc3c2)nc1 [Compound 31, 6-((7-((5-cyclopropyl-3-(2,6-dichlorophenyl)isoxazol-4-yl)methoxy)naphthalen-2-yl)oxy)nicotinic acid]
PO F [1]: 9.74% | Vd ([1]; IV 2.0 mg/kg): 2.77 L/kg | AUC(0-t) [1, 4]: 304 ng·h/mL | clearance ([1]; IV 2.0 mg/kg): 110 mL/min/kg | half-life ([1]; IV 2.0 mg/kg): 36.8 min | Cmax ([1]; PO 10 mg/kg): 133 ng/mL | Tmax ([1]; PO 10 mg/kg): 20 min | AUC(0-t) [1, 5]: 140 ng·h/mL | EC50 [2]: < 200 nM | EC50 [3]: < 50 nM
